# Molecular target: T1, SIRT1 (Homo sapiens, UniProt Q96EB6)
# T1 sequence (Q96EB6 1-747): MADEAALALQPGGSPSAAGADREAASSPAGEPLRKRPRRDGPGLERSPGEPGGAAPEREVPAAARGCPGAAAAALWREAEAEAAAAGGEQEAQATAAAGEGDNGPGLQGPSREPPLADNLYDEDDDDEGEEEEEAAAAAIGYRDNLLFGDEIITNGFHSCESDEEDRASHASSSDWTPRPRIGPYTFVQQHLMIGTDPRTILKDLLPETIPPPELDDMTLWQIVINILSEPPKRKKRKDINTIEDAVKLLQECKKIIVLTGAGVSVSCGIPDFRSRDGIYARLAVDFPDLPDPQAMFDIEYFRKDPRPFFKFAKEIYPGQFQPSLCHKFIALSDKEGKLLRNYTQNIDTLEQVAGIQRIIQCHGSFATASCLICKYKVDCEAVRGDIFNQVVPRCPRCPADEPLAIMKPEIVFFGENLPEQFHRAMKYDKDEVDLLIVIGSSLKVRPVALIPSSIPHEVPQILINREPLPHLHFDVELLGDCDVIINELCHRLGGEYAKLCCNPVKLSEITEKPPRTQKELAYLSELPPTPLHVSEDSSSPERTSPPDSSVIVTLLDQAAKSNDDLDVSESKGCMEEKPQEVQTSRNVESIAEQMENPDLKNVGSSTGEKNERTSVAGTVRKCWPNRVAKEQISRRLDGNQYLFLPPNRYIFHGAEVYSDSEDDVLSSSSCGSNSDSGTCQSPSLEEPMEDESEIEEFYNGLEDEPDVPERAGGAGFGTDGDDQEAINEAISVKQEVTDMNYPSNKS
# Experiment: Mass spectrometry based SIRT1 deacetylase activation assay (acetylated p53-derived peptide substrate)
# Type: biochemical
Compound,EC1.5,Fold Act. (percent maximum fold activation)
Cn1ccc(-c2nc3c(C(=O)Nc4nccs4)cccc3[nH]2)n1 [Compound 303],B (EC1.5 1-25 uM),A (Fold activation >200%)
Cc1nc(C)c(-c2nc3c(C(=O)Nc4nccs4)cccc3[nH]2)s1 [Compound 304],A (EC1.5<1.0 uM),A (Fold activation >200%)
O=C(Nc1nccs1)c1cccc2[nH]c(-c3ccccc3OC(F)(F)F)nc12 [Compound 305],A (EC1.5<1.0 uM),A (Fold activation >200%)
Cc1cc(NC(=O)c2cccc3[nH]c(-c4cccc(C(F)(F)F)c4)nc23)sn1 [Compound 306],B (EC1.5 1-25 uM),B (Fold Activation <200%)
O=C(Nc1ccc(Cl)nc1)c1cccc2[nH]c(-c3cccc(C(F)(F)F)c3)nc12 [Compound 307],B (EC1.5 1-25 uM),B (Fold Activation <200%)
CCOC(=O)c1csc(NC(=O)c2cccc3[nH]c(-c4cccc(C(F)(F)F)c4)nc23)n1 [Compound 308],B (EC1.5 1-25 uM),A (Fold activation >200%)
O=C(Nc1ccc(Cl)nn1)c1cccc2[nH]c(-c3cccc(C(F)(F)F)c3)nc12 [Compound 309],C (EC1.5 >25 uM),B (Fold Activation <200%)
O=C(Nc1ccncc1)c1cccc2[nH]c(-c3ccnn3-c3ccccc3)nc12 [Compound 310],A (EC1.5<1.0 uM),A (Fold activation >200%)
O=C(Nc1cccnc1)c1cccc2[nH]c(-c3ccnn3-c3ccccc3)nc12 [Compound 311],B (EC1.5 1-25 uM),A (Fold activation >200%)
O=C(Nc1cccnc1)c1cccc2[nH]c(-c3ccc(Cl)cc3C(F)(F)F)nc12 [Compound 312],A (EC1.5<1.0 uM),A (Fold activation >200%)
O=C(Nc1ccccn1)c1cccc2[nH]c(-c3ccc(Cl)cc3C(F)(F)F)nc12 [Compound 313],A (EC1.5<1.0 uM),A (Fold activation >200%)
O=C(Nc1nccs1)c1cccc2[nH]c(-c3ccnc(N4CCNCC4)c3)nc12 [Compound 314],B (EC1.5 1-25 uM),A (Fold activation >200%)
O=C(Nc1ccncc1)c1cccc2[nH]c(-c3ccc(Cl)cc3C(F)(F)F)nc12 [Compound 315],A (EC1.5<1.0 uM),A (Fold activation >200%)
O=C(Nc1ccncc1)c1cccc2[nH]c(-c3cc(F)ccc3C(F)(F)F)nc12 [Compound 316],A (EC1.5<1.0 uM),A (Fold activation >200%)
O=C(Nc1cccnc1)c1cccc2[nH]c(-c3cc(F)ccc3C(F)(F)F)nc12 [Compound 317],A (EC1.5<1.0 uM),A (Fold activation >200%)
Cc1nc(C)c(-c2nc3c(C(=O)Nc4ccncc4)cccc3[nH]2)s1 [Compound 318],A (EC1.5<1.0 uM),A (Fold activation >200%)
Cc1nc(C)c(-c2nc3c(C(=O)Nc4cccnc4)cccc3[nH]2)s1 [Compound 319],A (EC1.5<1.0 uM),A (Fold activation >200%)
Cc1nc(C)c(-c2nc3c(C(=O)Nc4ccccn4)cccc3[nH]2)s1 [Compound 320],B (EC1.5 1-25 uM),A (Fold activation >200%)
O=C(Nc1ncc(F)s1)c1cccc2[nH]c(-c3ccc(Cl)cc3C(F)(F)F)nc12 [Compound 321],A (EC1.5<1.0 uM),A (Fold activation >200%)
O=C(Nc1cc[n+]([O-])cc1)c1cccc2[nH]c(-c3cc(F)ccc3C(F)(F)F)nc12 [Compound 322],A (EC1.5<1.0 uM),A (Fold activation >200%)

# Reference: US8846947B2, “Benzimidazoles and related analogs as sirtuin modulators” (GlaxoSmithKline LLC, priority 2008, dated 2014)
